According to the supplement of paper PMC12494721:
Where a name gives a salt, the structure may show the parent alone.

Experiments:
Details in all cases: incubation time: 27 h, anaerobic, 37 °C
[1] = tested on: Klebsiella aerogenes DSM 30053; experiment: growth (OD595) fold change vs plate DMSO controls (fold change (ratio)); higher = more growth
[2] = tested on: Ruminococcus gnavus DSM 108212; experiment: as above
[3] = tested on: Klebsiella aerogenes DSM 30053; experiment: fold change of Histamine concentration vs plate DMSO controls (fold change (ratio)); higher = more amine produced
Method: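 Dose-response follow-up: bacteria (E. coli IAI1, K. aerogenes DSM 30053, C. sporogenes DSM 1664, R. gnavus DSM 108212) were grown anaerobically in mGAM at 37 °C for 27 h with compound at 0.6125-20 µM. Amines were measured in the whole culture by targeted LC-MS/MS. Metabolite fold change and OD595 fold change are relative to plate DMSO controls; n=2 biological replicates. OD fold changes are not clipped, so slightly negative values mean no growth.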

[4] = tested on: Klebsiella aerogenes DSM 30053; experiment: fold change of Putrescine concentration vs plate DMSO controls (fold change (ratio)); higher = more amine produced
[5] = tested on: Ruminococcus gnavus DSM 108212; experiment: fold change of Tryptamine concentration vs plate DMSO controls (fold change (ratio)); higher = more amine produced
[6] = tested on: Klebsiella aerogenes DSM 30053; experiment: fold change of Cadaverine concentration vs plate DMSO controls (fold change (ratio)); higher = more amine produced
[7] = tested on: Ruminococcus gnavus DSM 108212; experiment: fold change of 2-Phenylethylamine concentration vs plate DMSO controls (fold change (ratio)); higher = more amine produced
[8] = tested on: Clostridium sporogenes DSM 1664; experiment: growth (OD595) fold change vs plate DMSO controls (fold change (ratio)); higher = more growth
[9] = tested on: Clostridium sporogenes DSM 1664; experiment: fold change of Tryptamine concentration vs plate DMSO controls (fold change (ratio)); higher = more amine produced

N[C@@H]1CCCCN(c2c(F)cc3c(=O)c(C(=O)O)cn(C4CC4)c3c2Cl)C1 [Besifloxacin hydrochloride]
Details | fold change of 2-Phenylethylamine concentration, [7] | fold change of Cadaverine concentration, [6] | fold change of Histamine concentration, [3] | fold change of Putrescine concentration, [4] | fold change of Tryptamine concentration, [5] | growth, [1] | growth, [2]
0.6125 µM | 1.11 | 0.955 | 1.18 | 1.02 | 1.36 | 1.32 | 1.01
1.25 µM | 0.219 | 1.03 | 0.938 | 1.22 | 0.415 | 0.476 | 0.127
2.5 µM | 0.487 | 1.02 | 0.188 | 1.26 | 0.746 | 0.277 | 0.193
5 µM | 0.44 | 1.02 | 0.166 | 1.36 | 0.657 | 0.336 | 0.207
10 µM | 0.321 | 1 | 0.185 | 1.43 | 0.451 | 0.358 | 0.22
20 µM | 0.296 | 0.981 | 0.241 | 1.4 | 0.385 | 0.302 | 0.182

CCn1cc(C(=O)O)c(=O)c2cc(F)c(N3CCNCC3)cc21 [Norfloxacin]
Details | fold change of 2-Phenylethylamine concentration, [7] | fold change of Cadaverine concentration, [6] | fold change of Histamine concentration, [3] | fold change of Putrescine concentration, [4] | fold change of Tryptamine concentration, [5] | fold change of Tryptamine concentration, [9] | growth, [1] | growth, [2] | growth, [8]
0.6125 µM | 1.3 | 0.969 | 1.18 | 1.02 | 1.44 | 0.911 | 1.14 | 1.36 | 1.02
1.25 µM | 1.98 | 1.02 | 0.775 | 1.21 | 2.07 | 0.589 | 0.479 | 0.823 | 0.736
2.5 µM | 1.23 | 1 | 0.571 | 1.29 | 1.45 | 0.0459 | 0.363 | 0.713 | 0.00966
5 µM | 1.2 | 1 | 0.19 | 1.31 | 1.32 | 0.035 | 0.384 | 0.628 | 0.0175
10 µM | 1.25 | 1.01 | 0.262 | 1.37 | 1.41 | 0.0429 | 0.385 | 0.607 | 0.0423
20 µM | 1.38 | 1 | 0.237 | 1.37 | 1.51 | 0.0345 | 0.256 | 0.425 | 0.00666
